Our source for the GI50 and TGI values is PubChem BioAssay (NCI).

A word on the GI50: it is the concentration giving 50% growth inhibition. Broadly, the TGI is the concentration giving total growth inhibition. High values mean lower sensitivity of the cells, low ones greater sensitivity of the cells.

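Interpolation was linear, between the two tested concentrations surrounding the appropriate level; five concentrations were tested over 48 hours in 96-well plates. GI50 = concentration required for 50% inhibition of growth. TGI denotes the concentration required for complete inhibition of growth.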 A value given as a limit tells only on which side of the number the result lay.

Test systems include BT-549 breast; COLO 205 colon; UACC-257 melanoma; HCT-15 colon; NCI-H226 lung; CAKI-1 renal; SR leukemia; NCI-H23 lung; M14 melanoma; OVCAR-8 ovarian.
Common to all, as to test: DTP human tumour cell line panel, 48 h

Take `O=C1OCC2=C1C(c1ccccc1)c1cc3c(cc1N2)OCO3` (stereo not drawn): the GI50 in the assay on BT-549 breast is 0.0441 µM; in the assay with COLO 205 colon, 0.0261 µM; in the assay with UACC-257 melanoma, 4.58 µM; in the assay on HCT-15 colon, 0.0373 µM; in the assay with NCI-H226 lung, 0.0245 µM; in the assay on CAKI-1 renal it was 0.439 µM. Moreover, the GI50 in the assay with SR leukemia is less than 0.0115 µM; with NCI-H23 lung it was 0.0449 µM; with M14 melanoma it was 0.0276 µM; in the assay with OVCAR-8 ovarian, 0.0437 µM. Also, the TGI with BT-549 breast was 4.97 µM; in the assay with COLO 205 colon, 0.0703 µM; in the assay with UACC-257 melanoma it was more than 100 µM; in the assay with HCT-15 colon, more than 53.1 µM; in the assay on NCI-H226 lung, 0.0742 µM; in the assay on CAKI-1 renal, more than 62.9 µM. Moreover, the values for the concentration for total growth inhibition (TGI) in the assay with NCI-H23 lung, in the assay on M14 melanoma and in the assay with OVCAR-8 ovarian were more than 100 µM, more than 100 µM and more than 48.2 µM, respectively.
With `CN(C)CCCn1c(=O)c2ccccc2c2ccccc21`, the GI50 in the assay with BT-549 breast is 29.5 µM; in the assay with COLO 205 colon it was 5.58 µM; in the assay with UACC-257 melanoma, 12.6 µM; with HCT-15 colon it was 13.8 µM; with NCI-H226 lung, 12.1 µM; in the assay with CAKI-1 renal it was 6.23 µM. For the same compound, the GI50 in the assay with SR leukemia is 12.8 µM; in the assay with NCI-H23 lung, 17.6 µM; in the assay on M14 melanoma it was 14.4 µM; in the assay on OVCAR-8 ovarian, 7.03 µM. For the same compound, the TGI is 73.9 µM in the assay with BT-549 breast; 20.6 µM with COLO 205 colon; 26.6 µM with UACC-257 melanoma; more than 100 µM with HCT-15 colon; 38.5 µM in the assay on NCI-H226 lung; 34.9 µM with CAKI-1 renal. Further, the TGI in the assay with SR leukemia is more than 100 µM; in the assay with NCI-H23 lung it was 46 µM; in the assay with M14 melanoma, 29.6 µM; in the assay on OVCAR-8 ovarian, more than 100 µM.
Turning to `O=C1OC(=O)C(=C\c2ccc3c(c2)OCO3)/C1=C/c1ccc2c(c1)OCO2`, the TGI with BT-549 breast, in the assay on COLO 205 colon, in the assay with UACC-257 melanoma, in the assay on HCT-15 colon, in the assay on NCI-H226 lung and in the assay on CAKI-1 renal was more than 100 µM throughout. The TGI was more than 90.8 µM with SR leukemia, more than 100 µM in the assay with NCI-H23 lung, more than 100 µM in the assay on M14 melanoma and more than 100 µM in the assay with OVCAR-8 ovarian.
For `O=C(/C=C/c1ccccc1)CCN1CCOCC1`, the TGI in the assay on BT-549 breast is 17.9 µM; in the assay with COLO 205 colon it was 20 µM; in the assay with UACC-257 melanoma, 21.3 µM; with HCT-15 colon it was 24.4 µM; in the assay on NCI-H226 lung it was 51.6 µM; in the assay with CAKI-1 renal it was 16.4 µM. In addition, the TGI was 53.3 µM in the assay with SR leukemia, 31.8 µM with NCI-H23 lung, 29 µM in the assay with M14 melanoma and 38.5 µM in the assay with OVCAR-8 ovarian.
With `CNCCCNCCCCNCCCN1C(=O)c2ccc3c4c(ccc(c24)C1=O)C(=O)N(CCCNCc1ccccc1OC)C3=O`, the GI50 in the assay on BT-549 breast was 3.4 µM; with COLO 205 colon, 1.38 µM; in the assay with UACC-257 melanoma it was 1.25 µM; in the assay on HCT-15 colon, 4.27 µM; with NCI-H226 lung, 2.17 µM; in the assay with CAKI-1 renal, 2.25 µM. For the same compound, the GI50 was 4.42 µM with SR leukemia, 2.99 µM in the assay with NCI-H23 lung, 2.63 µM with M14 melanoma and 2.89 µM in the assay on OVCAR-8 ovarian. Further, the TGI came out at 15.8 µM with BT-549 breast; 8.16 µM in the assay with COLO 205 colon; 8.07 µM with UACC-257 melanoma; 70.1 µM in the assay on HCT-15 colon; 21.3 µM in the assay with NCI-H226 lung; 24.4 µM with CAKI-1 renal. The concentration for total growth inhibition (TGI) stood at 43.9 µM in the assay on SR leukemia, 19.1 µM in the assay with NCI-H23 lung, 13.3 µM with M14 melanoma and 54.6 µM with OVCAR-8 ovarian.
With `COc1cc2c(cc1OCCCn1c(-c3ccccn3)nc3ccccc31)N=C[C@@H]1CCCN1C2=O`, the GI50 was 1.6 µM with BT-549 breast; 2.22 µM in the assay on COLO 205 colon; 2.11 µM in the assay with UACC-257 melanoma; 2.5 µM in the assay on HCT-15 colon; 0.8 µM in the assay on NCI-H226 lung; 2.16 µM in the assay with CAKI-1 renal. Further, the GI50 with SR leukemia is 2.82 µM; in the assay with NCI-H23 lung it was 1.08 µM; with M14 melanoma, 0.92 µM; with OVCAR-8 ovarian it was 0.957 µM. Also, the TGI with BT-549 breast stood at 4.87 µM; in the assay on COLO 205 colon, 4.9 µM; in the assay on UACC-257 melanoma it was 9.42 µM; in the assay on HCT-15 colon, 9.92 µM; in the assay with NCI-H226 lung, 6.9 µM; in the assay with CAKI-1 renal, 5.6 µM. Besides, the TGI is more than 20.1 µM in the assay on SR leukemia, 3.77 µM in the assay on NCI-H23 lung and 2.8 µM in the assay on M14 melanoma.
For the compound `O=C1OCC2=C1C(c1ccc(Cl)c(Cl)c1)c1cc3c(cc1N2CCO)OCCO3` (stereo not drawn), the GI50 with BT-549 breast is 0.583 µM; in the assay on COLO 205 colon it was 0.21 µM; with UACC-257 melanoma it was 0.181 µM; with HCT-15 colon, 0.245 µM; in the assay on NCI-H226 lung, 0.29 µM; in the assay with CAKI-1 renal it was 0.277 µM. The GI50 was 0.187 µM in the assay on SR leukemia, 0.279 µM in the assay with NCI-H23 lung, 0.264 µM with M14 melanoma and 0.389 µM in the assay with OVCAR-8 ovarian. Besides, the TGI is 15.5 µM in the assay on BT-549 breast; 1.14 µM with COLO 205 colon; 19.4 µM with UACC-257 melanoma; more than 50 µM in the assay with HCT-15 colon; 7.71 µM in the assay on NCI-H226 lung; more than 35.5 µM in the assay with CAKI-1 renal. Further, the TGI came out at 21.7 µM with SR leukemia, 21.7 µM in the assay on NCI-H23 lung, 5.65 µM in the assay on M14 melanoma and 7.24 µM with OVCAR-8 ovarian.
As to `COc1cc2c(cc1C1COc3cc4occc4cc3C1=O)OCO2` (stereo not drawn), the TGI in the assay on BT-549 breast, in the assay with COLO 205 colon, in the assay on UACC-257 melanoma, in the assay on HCT-15 colon, with NCI-H226 lung and in the assay with CAKI-1 renal was more than 100 µM in each case. For the same compound, the TGI in the assay with SR leukemia, in the assay on NCI-H23 lung, with M14 melanoma and in the assay with OVCAR-8 ovarian was more than 100 µM each time.
In the case of `O=C1CCC(N2Cc3cc(CNC(=O)C(F)(F)c4ccc(Cl)cc4)ccc3C2=O)C(=O)N1` (stereo not drawn), the GI50 in the assay with BT-549 breast is 0.237 µM; in the assay on COLO 205 colon it was 0.721 µM; in the assay on UACC-257 melanoma, more than 100 µM; in the assay on HCT-15 colon, 0.511 µM; with NCI-H226 lung, 1.75 µM; in the assay on CAKI-1 renal, 40.5 µM. Also, the GI50 in the assay on SR leukemia is 54.1 µM; in the assay with NCI-H23 lung, more than 100 µM; with M14 melanoma, 38.4 µM; in the assay on OVCAR-8 ovarian, 0.243 µM. Besides, the TGI was more than 74.2 µM in the assay with BT-549 breast; more than 100 µM in the assay with COLO 205 colon; more than 100 µM in the assay with UACC-257 melanoma; more than 100 µM with HCT-15 colon; more than 100 µM with NCI-H226 lung; more than 100 µM in the assay on CAKI-1 renal. The TGI in the assay on SR leukemia, in the assay on NCI-H23 lung, in the assay on M14 melanoma and in the assay on OVCAR-8 ovarian was more than 100 µM throughout.
